Measurements taken from patent US9340590B2 (priority 2011, dated 2016).
Positions of bridges follow the written chain, without caps; N, C: chain ends. Non-standard residues stand in square brackets, D forms with d. Residues, ends and D or L forms follow the SMILES beside them. Phe(4-guanidino) = N=C(N)Nc1ccc(C[C@H](N)C(=O)O)cc1; hCit = NC(=O)NCCCC[C@H](N)C(=O)O; Cit = NC(=O)NCCC[C@H](N)C(=O)O; Dab = NCC[C@H](N)C(=O)O

How the values were obtained:
hNav1.7 = hNav1.7 (Homo sapiens, UniProt Q15858); assay: cell-based; conditions: Nav1.7 Use IC50
hNav1.5 = hNav1.5 (Homo sapiens, UniProt Q14524); assay: cell-based
Sequence of hNav1.5 (Q14524 whole entry, looked up): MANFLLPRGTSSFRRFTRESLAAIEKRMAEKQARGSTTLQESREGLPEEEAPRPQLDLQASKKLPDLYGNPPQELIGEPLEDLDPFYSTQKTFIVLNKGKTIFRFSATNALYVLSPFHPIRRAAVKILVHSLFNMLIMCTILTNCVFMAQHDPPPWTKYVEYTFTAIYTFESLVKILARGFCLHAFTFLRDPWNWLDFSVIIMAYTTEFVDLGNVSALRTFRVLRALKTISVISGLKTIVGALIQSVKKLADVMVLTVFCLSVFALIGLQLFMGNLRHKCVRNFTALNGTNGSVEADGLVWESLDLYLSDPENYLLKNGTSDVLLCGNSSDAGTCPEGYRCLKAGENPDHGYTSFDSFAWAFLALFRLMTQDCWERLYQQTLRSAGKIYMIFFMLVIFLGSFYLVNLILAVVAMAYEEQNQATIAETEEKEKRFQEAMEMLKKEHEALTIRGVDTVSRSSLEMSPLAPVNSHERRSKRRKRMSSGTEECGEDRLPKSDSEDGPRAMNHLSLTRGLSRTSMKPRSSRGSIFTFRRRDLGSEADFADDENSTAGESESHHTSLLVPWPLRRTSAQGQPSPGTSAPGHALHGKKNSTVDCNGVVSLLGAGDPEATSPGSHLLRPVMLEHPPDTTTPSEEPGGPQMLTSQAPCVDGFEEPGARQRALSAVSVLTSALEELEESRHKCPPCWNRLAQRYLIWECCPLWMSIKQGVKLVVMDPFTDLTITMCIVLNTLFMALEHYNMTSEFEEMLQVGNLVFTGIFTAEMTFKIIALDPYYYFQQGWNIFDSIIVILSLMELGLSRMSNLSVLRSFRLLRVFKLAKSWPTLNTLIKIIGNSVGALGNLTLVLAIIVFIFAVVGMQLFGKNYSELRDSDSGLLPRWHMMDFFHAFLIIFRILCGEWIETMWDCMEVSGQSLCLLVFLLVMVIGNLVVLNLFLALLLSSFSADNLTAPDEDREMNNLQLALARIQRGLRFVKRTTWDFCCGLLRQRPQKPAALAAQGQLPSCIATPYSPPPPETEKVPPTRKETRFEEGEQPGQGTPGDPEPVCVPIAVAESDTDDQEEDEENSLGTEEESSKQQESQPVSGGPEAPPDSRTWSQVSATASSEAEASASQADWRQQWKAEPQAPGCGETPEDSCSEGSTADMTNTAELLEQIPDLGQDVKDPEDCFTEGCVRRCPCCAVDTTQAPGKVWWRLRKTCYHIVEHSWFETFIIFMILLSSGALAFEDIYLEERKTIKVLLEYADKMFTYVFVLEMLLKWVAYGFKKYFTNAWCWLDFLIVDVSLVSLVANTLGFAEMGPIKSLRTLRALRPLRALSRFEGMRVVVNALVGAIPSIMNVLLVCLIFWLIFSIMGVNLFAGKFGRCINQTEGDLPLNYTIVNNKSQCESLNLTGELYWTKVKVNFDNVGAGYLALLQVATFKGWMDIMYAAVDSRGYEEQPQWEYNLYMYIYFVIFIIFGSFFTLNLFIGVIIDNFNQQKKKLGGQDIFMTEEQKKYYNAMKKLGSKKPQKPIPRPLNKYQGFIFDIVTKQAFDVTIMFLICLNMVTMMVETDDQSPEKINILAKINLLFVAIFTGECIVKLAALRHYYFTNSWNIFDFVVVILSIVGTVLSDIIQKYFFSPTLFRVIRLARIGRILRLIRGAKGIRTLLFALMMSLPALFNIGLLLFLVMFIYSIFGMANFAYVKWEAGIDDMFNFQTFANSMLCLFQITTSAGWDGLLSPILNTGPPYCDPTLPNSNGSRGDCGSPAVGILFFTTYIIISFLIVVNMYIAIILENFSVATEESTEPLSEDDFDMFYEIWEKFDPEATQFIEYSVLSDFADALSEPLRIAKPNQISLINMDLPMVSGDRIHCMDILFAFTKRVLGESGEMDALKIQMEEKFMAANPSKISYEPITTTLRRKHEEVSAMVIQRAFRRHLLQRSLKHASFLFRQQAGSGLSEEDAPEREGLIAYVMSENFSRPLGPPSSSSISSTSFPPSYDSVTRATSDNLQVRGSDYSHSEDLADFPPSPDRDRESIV

Sequence of hNav1.7 (Q15858 whole entry, looked up): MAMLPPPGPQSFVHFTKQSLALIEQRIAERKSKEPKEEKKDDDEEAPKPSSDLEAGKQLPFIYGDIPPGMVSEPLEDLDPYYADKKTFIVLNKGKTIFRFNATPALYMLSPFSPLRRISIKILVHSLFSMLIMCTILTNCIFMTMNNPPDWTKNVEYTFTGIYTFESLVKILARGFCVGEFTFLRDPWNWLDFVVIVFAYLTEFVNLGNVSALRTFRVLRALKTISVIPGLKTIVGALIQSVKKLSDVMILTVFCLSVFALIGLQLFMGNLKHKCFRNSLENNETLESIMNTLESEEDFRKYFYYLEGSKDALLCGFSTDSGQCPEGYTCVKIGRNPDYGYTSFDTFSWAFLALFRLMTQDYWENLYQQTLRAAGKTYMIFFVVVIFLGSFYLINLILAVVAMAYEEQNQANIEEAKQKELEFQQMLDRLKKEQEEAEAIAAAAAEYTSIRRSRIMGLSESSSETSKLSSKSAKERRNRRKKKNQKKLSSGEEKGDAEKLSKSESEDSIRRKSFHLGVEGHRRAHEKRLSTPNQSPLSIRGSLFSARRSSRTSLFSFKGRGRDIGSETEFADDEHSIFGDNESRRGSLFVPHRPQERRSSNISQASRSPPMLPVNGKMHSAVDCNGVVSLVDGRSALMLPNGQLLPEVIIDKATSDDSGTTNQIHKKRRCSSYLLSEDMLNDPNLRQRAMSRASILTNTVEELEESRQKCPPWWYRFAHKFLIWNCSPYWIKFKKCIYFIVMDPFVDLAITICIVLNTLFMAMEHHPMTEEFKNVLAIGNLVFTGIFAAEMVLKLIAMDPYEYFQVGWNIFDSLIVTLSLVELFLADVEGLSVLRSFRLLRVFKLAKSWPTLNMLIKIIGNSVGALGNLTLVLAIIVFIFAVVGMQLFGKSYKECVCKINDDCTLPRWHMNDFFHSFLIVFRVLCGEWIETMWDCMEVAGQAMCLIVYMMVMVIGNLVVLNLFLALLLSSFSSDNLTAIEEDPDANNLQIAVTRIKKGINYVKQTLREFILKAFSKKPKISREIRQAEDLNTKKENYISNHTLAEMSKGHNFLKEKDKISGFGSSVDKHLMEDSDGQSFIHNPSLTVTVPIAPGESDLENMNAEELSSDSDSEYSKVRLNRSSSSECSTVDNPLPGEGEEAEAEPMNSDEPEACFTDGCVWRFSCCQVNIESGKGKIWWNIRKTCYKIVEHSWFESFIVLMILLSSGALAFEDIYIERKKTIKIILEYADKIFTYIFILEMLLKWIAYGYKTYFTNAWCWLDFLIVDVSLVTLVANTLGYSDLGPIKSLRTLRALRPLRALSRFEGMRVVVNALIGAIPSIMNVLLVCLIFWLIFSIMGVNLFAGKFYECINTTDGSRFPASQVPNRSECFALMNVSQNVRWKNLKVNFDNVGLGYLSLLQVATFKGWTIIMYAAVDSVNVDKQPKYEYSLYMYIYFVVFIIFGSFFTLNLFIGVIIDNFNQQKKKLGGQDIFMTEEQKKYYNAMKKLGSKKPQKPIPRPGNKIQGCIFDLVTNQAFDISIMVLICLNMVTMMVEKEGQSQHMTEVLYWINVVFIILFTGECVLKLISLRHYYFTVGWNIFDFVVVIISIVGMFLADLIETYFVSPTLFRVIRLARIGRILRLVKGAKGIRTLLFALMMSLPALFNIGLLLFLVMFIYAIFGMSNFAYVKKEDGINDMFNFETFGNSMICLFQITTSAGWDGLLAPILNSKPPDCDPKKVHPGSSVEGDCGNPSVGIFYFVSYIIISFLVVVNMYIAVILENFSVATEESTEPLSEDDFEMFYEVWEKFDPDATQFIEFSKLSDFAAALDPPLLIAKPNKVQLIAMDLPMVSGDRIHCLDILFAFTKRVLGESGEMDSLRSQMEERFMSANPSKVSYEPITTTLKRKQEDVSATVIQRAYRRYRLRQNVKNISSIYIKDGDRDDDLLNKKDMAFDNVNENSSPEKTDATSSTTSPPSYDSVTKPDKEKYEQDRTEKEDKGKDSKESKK

Compound	IC50 (hNav1.7) [nM]	IC50 (hNav1.5) [nM]
CSCC[C@@H]1NC(=O)[C@H](C)NC(=O)CNC(=O)[C@H](CC(C)C)NC(=O)[C@@H](NC(=O)[C@@H](N)CC(=O)O)CSSC[C@@H]2NC(=O)[C@@H]3CSSC[C@@H](C(=O)N[C@@H](CCCCN)C(=O)N[C@@H](Cc4ccc(O)cc4)C(=O)N[C@H](C(=O)N[C@@H](Cc4ccccc4)C(N)=O)C(C)C)NC(=O)[C@H](Cc4c[nH]c5ccccc45)NC(=O)[C@H](CCCCN)NC(=O)[C@H](Cc4c[nH]cn4)NC(=O)[C@H]([C@@H](C)O)NC(=O)[C@H](CCCNC(=N)N)NC(=O)[C@H](CO)NC(=O)[C@H](CSSC[C@H](NC(=O)[C@H](CCCCN)NC(=O)[C@H](CCCNC(=N)N)NC1=O)C(=O)N[C@@H](CC(=O)O)C(=O)N1CCC[C@H]1C(=O)N[C@@H](CCC(=O)O)C(=O)N[C@@H](CC(N)=O)C(=O)N[C@@H](CC(=O)O)C(=O)N[C@@H](CCCCN)C(=O)N3)NC(=O)[C@H](C(C)C)NC(=O)[C@H](CC(C)C)NC(=O)[C@H](CC(N)=O)NC(=O)[C@@H]1CCCN1C(=O)[C@H](CCCNC(=N)N)NC2=O [[Ala5;Asp10;Glu12]GpTx-1(1-34)] (H-DCLGAMRKCDPENDKCCRPNLVCSRTHKWCKYVF-NH2; disulfide 2-17, 9-23, 16-30)	554	> 10000
CSCC[C@@H]1NC(=O)[C@H](C)NC(=O)CNC(=O)[C@H](CC(C)C)NC(=O)[C@@H](NC(=O)[C@@H](N)CC(=O)O)CSSC[C@@H]2NC(=O)[C@@H]3CSSC[C@@H](C(=O)N[C@@H](CCCCN)C(=O)N[C@@H](Cc4ccc(O)cc4)C(=O)N[C@H](C(=O)N[C@@H](Cc4ccccc4)C(N)=O)C(C)C)NC(=O)[C@H](Cc4c[nH]c5ccccc45)NC(=O)[C@H](CCCCN)NC(=O)[C@H](Cc4c[nH]cn4)NC(=O)[C@H]([C@@H](C)O)NC(=O)[C@H](CCCNC(=N)N)NC(=O)[C@H](CO)NC(=O)[C@H](CSSC[C@H](NC(=O)[C@H](CCCCN)NC(=O)[C@H](CCCNC(=N)N)NC1=O)C(=O)N[C@@H](CC(=O)O)C(=O)N1CCC[C@H]1C(=O)N[C@@H](CC(=O)O)C(=O)N[C@@H](CC(N)=O)C(=O)N[C@@H](CC(=O)O)C(=O)N[C@@H](CCCCN)C(=O)N3)NC(=O)[C@H](C(C)C)NC(=O)[C@H](CC(C)C)NC(=O)[C@H](CC(N)=O)NC(=O)[C@@H]1CCCN1C(=O)[C@H](CCCNC(=N)N)NC2=O [[Ala5;Asp10]GpTx-1(1-34)] (H-DCLGAMRKCDPDNDKCCRPNLVCSRTHKWCKYVF-NH2; disulfide 2-17, 9-23, 16-30)	50	> 10000
CC[C@H](C)[C@@H]1NC(=O)[C@@H]2CSSC[C@@H]3NC(=O)[C@H](C(C)C)NC(=O)[C@H](CC(C)C)NC(=O)[C@H](CC(N)=O)NC(=O)[C@@H]4CCCN4C(=O)[C@H](CCCNC(=N)N)NC(=O)[C@H](CSSC[C@H](NC(=O)[C@@H](N)CC(=O)O)C(=O)N[C@@H](CC(C)C)C(=O)NCC(=O)N[C@@H](C)C(=O)N[C@@H](CCSC)C(=O)N[C@@H](CCCNC(=N)N)C(=O)N[C@@H](CCCCN)C(=O)N2)NC(=O)[C@H](CSSC[C@@H](C(=O)N[C@@H](CCCCN)C(=O)N[C@@H](Cc2ccc(O)cc2)C(=O)N[C@H](C(=O)N[C@@H](Cc2ccccc2)C(N)=O)C(C)C)NC(=O)[C@H](Cc2c[nH]c4ccccc24)NC(=O)[C@H](CCCNC(N)=O)NC(=O)[C@H](Cc2c[nH]cn2)NC(=O)[C@H]([C@@H](C)O)NC(=O)[C@H](CCCNC(=N)N)NC(=O)[C@H](CO)NC3=O)NC(=O)[C@H](CCCCN)NC(=O)[C@H](CC(=O)O)NC(=O)[C@H](CC(N)=O)NC(=O)[C@H](CC(=O)O)NC(=O)[C@@H]2CCCN2C1=O [[Ala5;Cit28]GpTx-1(1-34)] (H-DCLGAMRKCIPDNDKCCRPNLVCSRTH[Cit]WCKYVF-NH2; disulfide 2-17, 9-23, 16-30)	30	> 10000
CC[C@H](C)[C@@H]1NC(=O)[C@@H]2CSSC[C@@H]3NC(=O)[C@H](C(C)C)NC(=O)[C@H](CC(C)C)NC(=O)[C@H](CC(N)=O)NC(=O)[C@@H]4CCCN4C(=O)[C@H](CCCNC(=N)N)NC(=O)[C@H](CSSC[C@H](NC(=O)[C@@H](N)CC(=O)O)C(=O)N[C@@H](CC(C)C)C(=O)NCC(=O)N[C@@H](C)C(=O)N[C@@H](CCSC)C(=O)N[C@@H](CCCNC(=N)N)C(=O)N[C@@H](CCCCN)C(=O)N2)NC(=O)[C@H](CSSC[C@@H](C(=O)N[C@@H](CCCCN)C(=O)N[C@@H](Cc2ccc(O)cc2)C(=O)N[C@H](C(=O)N[C@@H](Cc2ccccc2)C(N)=O)C(C)C)NC(=O)[C@H](Cc2c[nH]c4ccccc24)NC(=O)[C@H](CCN)NC(=O)[C@H](Cc2c[nH]cn2)NC(=O)[C@H]([C@@H](C)O)NC(=O)[C@H](CCCNC(=N)N)NC(=O)[C@H](CO)NC3=O)NC(=O)[C@H](CCCCN)NC(=O)[C@H](CC(=O)O)NC(=O)[C@H](CC(N)=O)NC(=O)[C@H](CC(=O)O)NC(=O)[C@@H]2CCCN2C1=O [[Ala5;Dab28]GpTx-1(1-34)] (H-DCLGAMRKCIPDNDKCCRPNLVCSRTH[Dab]WCKYVF-NH2; disulfide 2-17, 9-23, 16-30)	13	> 10000
CC[C@H](C)[C@@H]1NC(=O)[C@@H]2CSSC[C@@H]3NC(=O)[C@H](C(C)C)NC(=O)[C@H](CC(C)C)NC(=O)[C@H](CC(N)=O)NC(=O)[C@@H]4CCCN4C(=O)[C@H](CCCNC(=N)N)NC(=O)[C@H](CSSC[C@H](NC(=O)[C@@H](N)CC(=O)O)C(=O)N[C@@H](CC(C)C)C(=O)NCC(=O)N[C@@H](C)C(=O)N[C@@H](CCSC)C(=O)N[C@@H](CCCNC(=N)N)C(=O)N[C@@H](CCCCN)C(=O)N2)NC(=O)[C@H](CSSC[C@@H](C(=O)N[C@@H](CCCCN)C(=O)N[C@@H](Cc2ccc(O)cc2)C(=O)N[C@H](C(=O)N[C@@H](Cc2ccccc2)C(N)=O)C(C)C)NC(=O)[C@H](Cc2c[nH]c4ccccc24)NC(=O)[C@H](CCC(N)=O)NC(=O)[C@H](Cc2c[nH]cn2)NC(=O)[C@H]([C@@H](C)O)NC(=O)[C@H](CCCNC(=N)N)NC(=O)[C@H](CO)NC3=O)NC(=O)[C@H](CCCCN)NC(=O)[C@H](CC(=O)O)NC(=O)[C@H](CC(N)=O)NC(=O)[C@H](CC(=O)O)NC(=O)[C@@H]2CCCN2C1=O [[Ala5;Gln28]GpTx-1(1-34)] (H-DCLGAMRKCIPDNDKCCRPNLVCSRTHQWCKYVF-NH2; disulfide 2-17, 9-23, 16-30)	37	> 10000
CC[C@H](C)[C@@H]1NC(=O)[C@@H]2CSSC[C@@H]3NC(=O)[C@H](C(C)C)NC(=O)[C@H](CC(C)C)NC(=O)[C@H](CC(N)=O)NC(=O)[C@@H]4CCCN4C(=O)[C@H](CCCNC(=N)N)NC(=O)[C@H](CSSC[C@H](NC(=O)[C@@H](N)CC(=O)O)C(=O)N[C@@H](CC(C)C)C(=O)NCC(=O)N[C@@H](C)C(=O)N[C@@H](CCSC)C(=O)N[C@@H](CCCNC(=N)N)C(=O)N[C@@H](CCCCN)C(=O)N2)NC(=O)[C@H](CSSC[C@@H](C(=O)N[C@@H](CCCCN)C(=O)N[C@@H](Cc2ccc(O)cc2)C(=O)N[C@H](C(=O)N[C@@H](Cc2ccccc2)C(N)=O)C(C)C)NC(=O)[C@H](Cc2c[nH]c4ccccc24)NC(=O)[C@H](CCC(=O)O)NC(=O)[C@H](Cc2c[nH]cn2)NC(=O)[C@H]([C@@H](C)O)NC(=O)[C@H](CCCNC(=N)N)NC(=O)[C@H](CO)NC3=O)NC(=O)[C@H](CCCCN)NC(=O)[C@H](CC(=O)O)NC(=O)[C@H](CC(N)=O)NC(=O)[C@H](CC(=O)O)NC(=O)[C@@H]2CCCN2C1=O [[Ala5;Glu28]GpTx-1(1-34)]	614	> 10000
CC[C@H](C)[C@@H]1NC(=O)[C@@H]2CSSC[C@@H]3NC(=O)[C@H](C(C)C)NC(=O)[C@H](CC(C)C)NC(=O)[C@H](CC(N)=O)NC(=O)[C@@H]4CCCN4C(=O)[C@H](CCCNC(=N)N)NC(=O)[C@H](CSSC[C@H](NC(=O)[C@@H](N)CC(=O)O)C(=O)N[C@@H](CC(C)C)C(=O)NCC(=O)N[C@@H](C)C(=O)N[C@@H](CCSC)C(=O)N[C@@H](CCCNC(=N)N)C(=O)N[C@@H](CCCCN)C(=O)N2)NC(=O)[C@H](CSSC[C@@H](C(=O)N[C@@H](CCCCN)C(=O)N[C@@H](Cc2ccc(O)cc2)C(=O)N[C@H](C(=O)N[C@@H](Cc2ccccc2)C(N)=O)C(C)C)NC(=O)[C@H](Cc2c[nH]c4ccccc24)NC(=O)[C@H](Cc2ccc(NC(=N)N)cc2)NC(=O)[C@H](Cc2c[nH]cn2)NC(=O)[C@H]([C@@H](C)O)NC(=O)[C@H](CCCNC(=N)N)NC(=O)[C@H](CO)NC3=O)NC(=O)[C@H](CCCCN)NC(=O)[C@H](CC(=O)O)NC(=O)[C@H](CC(N)=O)NC(=O)[C@H](CC(=O)O)NC(=O)[C@@H]2CCCN2C1=O [[Ala5;Guf28]GpTx-1(1-34)] (H-DCLGAMRKCIPDNDKCCRPNLVCSRTH[Phe(4-guanidino)]WCKYVF-NH2; disulfide 2-17, 9-23, 16-30)	5	> 10000
CC[C@H](C)[C@@H]1NC(=O)[C@@H]2CSSC[C@@H]3NC(=O)[C@H](C(C)C)NC(=O)[C@H](CC(C)C)NC(=O)[C@H](CC(N)=O)NC(=O)[C@@H]4CCCN4C(=O)[C@H](CCCNC(=N)N)NC(=O)[C@H](CSSC[C@H](NC(=O)[C@@H](N)CC(=O)O)C(=O)N[C@@H](CC(C)C)C(=O)NCC(=O)N[C@@H](C)C(=O)N[C@@H](CCSC)C(=O)N[C@@H](CCCNC(=N)N)C(=O)N[C@@H](CCCCN)C(=O)N2)NC(=O)[C@H](CSSC[C@@H](C(=O)N[C@@H](CCCCN)C(=O)N[C@@H](Cc2ccc(O)cc2)C(=O)N[C@H](C(=O)N[C@@H](Cc2ccccc2)C(N)=O)C(C)C)NC(=O)[C@H](Cc2c[nH]c4ccccc24)NC(=O)[C@H](CCCCNC(N)=O)NC(=O)[C@H](Cc2c[nH]cn2)NC(=O)[C@H]([C@@H](C)O)NC(=O)[C@H](CCCNC(=N)N)NC(=O)[C@H](CO)NC3=O)NC(=O)[C@H](CCCCN)NC(=O)[C@H](CC(=O)O)NC(=O)[C@H](CC(N)=O)NC(=O)[C@H](CC(=O)O)NC(=O)[C@@H]2CCCN2C1=O [[Ala5;HCit28]GpTx-1(1-34)] (H-DCLGAMRKCIPDNDKCCRPNLVCSRTH[hCit]WCKYVF-NH2; disulfide 2-17, 9-23, 16-30)	25	> 10000
